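These data come from cells grown in 96-well plates and exposed to compound for 48 hours at five concentrations. GI50 = concentration required for 50% inhibition of growth.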 Activity calls are given as the source filed them. No stated cut-off is given here; in the data, active = GI50 up to about 1.1 µM and inactive = higher. Bounds are passed on as bounds.

Among the test systems are UO-31; NCI-H226; EKVX; MOLT-4; SK-MEL-28; RXF 393; HCT-15; SK-MEL-5; SF-268; HOP-92; HOP-62; A498; SN12C; KM-20L2; UACC-62; K562.
What all share (experiment): NCI tumour cell line growth inhibition, 48 h

For `CC(C)CCCC(C)[C@H]1CCC2[C@H]3C(CC[C@@]21C)[C@@]1(C)CCC=C[C@]12C[C@@H]2[C@@H]3O` (stereo partly specified), the GI50 in the experiment with UO-31, in the experiment on NCI-H226, in the experiment on EKVX, with MOLT-4, in the experiment with SK-MEL-28 and in the experiment on RXF 393 was > 100 µM (inactive) in each case. For the same compound, the GI50 is greater than 100 µM with HCT-15; > 100 µM (inactive) with SK-MEL-5; > 100 µM (inactive) in the experiment with SF-268; > 100 µM (inactive) in the experiment on HOP-92; > 100 µM (inactive) in the experiment with HOP-62; > 100 µM (inactive) in the experiment with A498. Moreover, the GI50 with SN12C, with KM-20L2 and in the experiment with UACC-62 was > 100 µM (inactive) throughout.
On to `CSc1cc(C(C)(C)C)ccc1C(O)c1ccc(C(C)(C)C)cc1SC`, for which the GI50 with UO-31 was 6.37 µM (inactive); with NCI-H226, 12.9 µM (inactive); in the experiment with EKVX, 6.81 µM (inactive); in the experiment with MOLT-4, 3.35 µM (inactive); in the experiment on SK-MEL-28 it was 17.5 µM (inactive); with K562, 7.14 µM (inactive). The GI50 is 12.1 µM (inactive) in the experiment with RXF 393; 7.83 µM with HCT-15; 14.4 µM (inactive) in the experiment on SK-MEL-5; 13.3 µM (inactive) with SF-268; 14.5 µM (inactive) with HOP-92; 13.5 µM (inactive) with HOP-62. Moreover, the GI50 was 13.2 µM (inactive) with A498, 13.1 µM (inactive) in the experiment on SN12C, 11 µM (inactive) in the experiment on KM-20L2 and 15.3 µM (inactive) with UACC-62.
Take `CC(=O)Nc1ccc(C2=N/C(=C\c3ccc(Cl)cc3)C(=O)O2)cc1`: the GI50 in the experiment with UO-31 is 26.4 µM (inactive); in the experiment with NCI-H226, > 100 µM (inactive); in the experiment on EKVX it was > 100 µM (inactive); in the experiment on MOLT-4, 20.7 µM (inactive); in the experiment with SK-MEL-28, > 100 µM (inactive); in the experiment with K562 it was 19.5 µM (inactive). Further, the GI50 with RXF 393 is 53.5 µM (inactive); in the experiment on HCT-15, 19.9 µM; in the experiment on SK-MEL-5 it was 77.8 µM (inactive); in the experiment on SF-268, 34.3 µM (inactive); in the experiment with HOP-92, 33.7 µM (inactive); with HOP-62, > 100 µM (inactive). In addition, the GI50 was > 100 µM (inactive) in the experiment on A498, 28.2 µM (inactive) in the experiment on SN12C, 84.7 µM (inactive) in the experiment on KM-20L2 and 40.6 µM (inactive) with UACC-62.
With `CSC(=S)N(C)NC(=O)c1cccc(C(=O)NN(C)C(=S)SC)n1`, the GI50 was 25.9 µM (inactive) in the experiment with NCI-H226; 16.1 µM (inactive) in the experiment with EKVX; 4.33 µM (inactive) with MOLT-4; 15.4 µM (inactive) in the experiment on SK-MEL-28; 15.6 µM (inactive) with K562; 25.7 µM (inactive) in the experiment on RXF 393. The GI50 in the experiment on HCT-15 was 25.9 µM; in the experiment on SK-MEL-5 it was 15.7 µM (inactive); in the experiment on SF-268, 6.1 µM (inactive); with HOP-92, 21.5 µM (inactive); with HOP-62, 17.1 µM (inactive); in the experiment on A498, 28.2 µM (inactive). The GI50 is 22.2 µM (inactive) with SN12C, 4.07 µM (inactive) in the experiment on KM-20L2 and 14.3 µM (inactive) in the experiment on UACC-62.
As for `COc1ccc(NCc2cc(OC)cc(OC)c2)cc1`, the GI50 with UO-31 is 35.9 µM (inactive); in the experiment on NCI-H226, 38.3 µM (inactive); in the experiment on EKVX, 78.5 µM (inactive); with MOLT-4, 17.1 µM (inactive); in the experiment with SK-MEL-28, 24.5 µM (inactive); with K562, 3.88 µM (inactive). Moreover, the GI50 with RXF 393 is 13.7 µM (inactive); in the experiment with HCT-15, 10.3 µM; in the experiment on SK-MEL-5 it was 9.91 µM (inactive); in the experiment with SF-268, 26 µM (inactive); in the experiment on HOP-92, 78.5 µM (inactive); with HOP-62, 8.53 µM (inactive). Also, the GI50 is 27.5 µM (inactive) with A498, 36.1 µM (inactive) with SN12C, 10.7 µM (inactive) in the experiment on KM-20L2 and 9.48 µM (inactive) in the experiment with UACC-62.
For `C=C1CC[C@@H]2C(C)(C)C(O)CCC2(C)C1COc1ccc2ccc(=O)oc2c1` (stereo partly specified), the GI50 with UO-31 is 16 µM (inactive); in the experiment on NCI-H226, 18.8 µM (inactive); in the experiment on EKVX, 19.3 µM (inactive); with MOLT-4, 14.7 µM (inactive); in the experiment with SK-MEL-28 it was 18.1 µM (inactive); in the experiment on K562 it was 16.6 µM (inactive). In addition, the GI50 was 15.3 µM (inactive) with RXF 393; 14.1 µM in the experiment on HCT-15; 18.9 µM (inactive) in the experiment on SF-268; 17.3 µM (inactive) with HOP-92; 19.1 µM (inactive) in the experiment on HOP-62; 19.9 µM (inactive) with A498. Besides, the GI50 was 16.3 µM (inactive) in the experiment on SN12C, 19.1 µM (inactive) in the experiment with KM-20L2 and 15.8 µM (inactive) with UACC-62.
As to `CC(C)[Si](OCC1CC(C#N)OC(C)(C)O1)(C(C)C)C(C)C` (stereo unspecified), the GI50 is 20.7 µM (inactive) in the experiment on UO-31; 19.1 µM (inactive) in the experiment on NCI-H226; 30.3 µM (inactive) in the experiment on EKVX; 19.6 µM (inactive) in the experiment on MOLT-4; 39.4 µM (inactive) with SK-MEL-28; 19 µM (inactive) in the experiment with K562. The GI50 was 17.1 µM (inactive) in the experiment with RXF 393; 27.8 µM in the experiment with HCT-15; 15.5 µM (inactive) in the experiment on SK-MEL-5; 26.9 µM (inactive) in the experiment with SF-268; 21.7 µM (inactive) with HOP-92; 23.7 µM (inactive) in the experiment with HOP-62. Further, the GI50 in the experiment on A498 is 6.3 µM (inactive); in the experiment with SN12C it was 32.4 µM (inactive); in the experiment with KM-20L2 it was 21.9 µM (inactive); in the experiment with UACC-62, 30.1 µM (inactive).
As for `CCc1cccc(C)c1NC(=S)NC(=O)c1ccccc1C(=O)NC(=S)Nc1c(C)cccc1CC`, the GI50 in the experiment on UO-31 was > 100 µM (inactive); with NCI-H226 it was 50.4 µM (inactive); with EKVX, 59.6 µM (inactive); with MOLT-4, 53.7 µM (inactive); with SK-MEL-28 it was > 100 µM (inactive); with K562, 38.9 µM (inactive). In addition, the GI50 with RXF 393 was > 100 µM (inactive); with HCT-15 it was greater than 100 µM; with SK-MEL-5, > 100 µM (inactive); with SF-268, > 100 µM (inactive); with HOP-92, 19.1 µM (inactive); in the experiment on HOP-62, > 100 µM (inactive). Further, the GI50 with A498 is > 100 µM (inactive); in the experiment on SN12C, > 100 µM (inactive); with KM-20L2, 91.8 µM (inactive); with UACC-62, 37.7 µM (inactive).
Turning to `CCn1c2ccccc2c2ccc3c(c21)C(=O)c1ccccc1C3=O`, the GI50 in the experiment on UO-31 was > 100 µM (inactive); with NCI-H226, > 100 µM (inactive); in the experiment with EKVX it was 44.8 µM (inactive); in the experiment with MOLT-4, 61.5 µM (inactive); with SK-MEL-28, > 100 µM (inactive); in the experiment with K562, > 100 µM (inactive). The GI50 with RXF 393 was 84.1 µM (inactive); with HCT-15, greater than 100 µM; with SK-MEL-5 it was 76.6 µM (inactive); in the experiment with SF-268, > 100 µM (inactive); in the experiment on HOP-92, 82.2 µM (inactive); with HOP-62, > 100 µM (inactive). Further, the GI50 with A498, in the experiment with SN12C, in the experiment on KM-20L2 and in the experiment with UACC-62 was > 100 µM (inactive) throughout.

Values taken from ChEMBL document CHEMBL1201862, “PubChem BioAssay data set” (2004).
